We go through 39 molecules from patent publication US6384080B1, “Anthranilic acid derivatives as inhibitors of the cGMP-phosphodiesterase” (Fujisawa Pharmaceutical Co., Ltd., priority 1998, dated 2002).

Where a name gives a salt, the structure may show the parent alone. A value given as a limit tells only on which side of the number the result lay.

The first assay has as its target T1, human platelet PDE-V (Homo sapiens, UniProt O76074).
T1 construct: Human platelet cGMP-PDE was separated from other isozymes in human platelets; from tissue; host or cells: human platelets
Description: cGMP-Phosphodiesterase (PDE) assay, enzymatic inhibitory test.
Conditions: not given
It is filed as biochemical. Here is the method: cGMP-Phosphodiesterase (PDE) Assay
Human platelet cGMP-PDE was separated from other isozymes in human platelets by a modification of the method of Thompson et. al. (see Cyclic Nucleotide Phosphodiesterase (PDE), in Methods of Enzymatic analysis, Vol 4, p127-234, 1984). In enzyme inhibition assays, the test compounds were dissolved in DMSO and then diluted with assay buffer (50 mM Tris-HCl, 0.077 mg/ml dithiothreitol and 10 mg/ml snake venom, 1 mM EGTA, pH 8.0), at final concentrations ranging from 10^−10 to 10^−6 M. Assays were performed at 0.1 μM substrate ([^3H]-cGMP) concentration, at 30° C. for 10 minutes using enzyme dilutions which gave 10-20% hydrolysis of substrate. Each assay was initiated by addition of substrate and terminated by addition of anion exchange resin (Dowex® 1-X8, 250 mg/mg) followed by centrifugation for 10 minutes (3000 rpm, at 4° C.). Radioactivity of supernatant (^3H-GMP) was assayed by liquid scintillation counting.
As to `O=C(NCc1ccc([N+](=O)[O-])cc1)c1cc([N+](=O)[O-])ccc1NC1CCCC1` [2-(Cyclopentylamino)-5-nitro-N-(4-nitrobenzyl)benzamide], the IC50 (commonly the concentration needed to halve the response being measured) is less than 0.01 µM. Molecule `O=C(NCc1ccc2c(c1)OCO2)c1cc([N+](=O)[O-])ccc1NC(CCl)CCl` [2-[2-Chloro-1-(chloromethyl)ethylamino]-5-nitro-N-(1,3-benzodioxol-5-ylmethyl)benzamide] gave an IC50 of less than 0.01 µM.

The same assay, now with this note: human platelet PDE-V; 0.1 μM [3H]-cGMP substrate, 30° C., 10 minutes; read-out: Inhibitory activity IC50.
On to `O=C(NCc1ccccc1)c1cc([N+](=O)[O-])ccc1N[C@@H]1CCC[C@H]1O` (relative stereo) [N-Benzyl-2-(trans-2-hydroxycyclopentylamino)-5-nitrobenzamide], for which the 50% inhibitory concentration (IC50) was less than 0.01 µM. In the case of `O=C(NCc1ccc2c(c1)OCO2)c1cc([N+](=O)[O-])ccc1NC1CCS(=O)(=O)CC1` [2-(1,1-dioxotetrahydro-2H-thiopyran-4-ylamino)-5-nitro-N-(1,3-benzodioxol-5-ylmethyl)benzamide], the IC50 is less than 0.01 µM.

In the case of `COc1ccc(CNC(=O)c2cc([N+](=O)[O-])ccc2NC2CCN(C(=N)N)CC2)cc1OC` [2-(1-Amidinopiperidin-4-ylamino)-N-(3,4-dimethoxybenzyl)-5-nitrobenzamide hydrochloride], the IC50 was less than 0.01 µM. Take `O=C(NCc1ccc2c(c1)OCO2)c1cc([N+](=O)[O-])ccc1NC1CCN(Cc2ccccc2)CC1` [2-(1-Benzylpiperidin-4-ylamino)-5-nitro-N-(1,3-benzodioxol-5-ylmethyl)benzamide]: the IC50 is less than 0.01 µM.

On to `O=CN1CCC(Nc2ccc([N+](=O)[O-])cc2C(=O)NCc2ccc3c(c2)OCO3)CC1` [2-(1-Formyl-4-piperidinylamino)-5-nitro-N-(1,3-benzodioxol-5-ylmethyl)benzamide], for which the IC50 was less than 0.01 µM. On to `CC(=O)N1CCC(Nc2ccc([N+](=O)[O-])cc2C(=O)NCc2ccc3c(c2)OCO3)CC1` [2-(1-acetyl-4-piperidinylamino)-5-nitro-N-(1,3-benzodioxol-5-ylmethyl)benzamide], for which the IC50 was less than 0.01 µM. The same measure, in the same setting: as for `CN1CCC(Nc2ccc([N+](=O)[O-])cc2C(=O)NCc2ccc3c(c2)OCO3)CC1` [2-(1-methyl-4-piperidinylamino)-5-nitro-N-(1,3-benzodioxol-5-ylmethyl)benzamide], the figure is less than 0.01 µM. On the same count and under the same terms, the same measure for `NC(=O)C1CCC(Nc2ccc([N+](=O)[O-])cc2C(=O)NCc2ccc3c(c2)OCO3)CC1` (stereo not drawn) [2-(4-carbamoylcyclohexylamino)-5-nitro-N-(1,3-benzodioxol-5-ylmethyl)benzamide]: less than 0.01 µM; for `O=C(NCc1ccc2c(c1)OCO2)c1cc([N+](=O)[O-])ccc1NC1CCC(C(=O)O)CC1` (stereo not drawn) [2-(4-carboxycyclohexylamino)-5-nitro-N-(1,3-benzodioxol-5-ylmethyl)benzamide]: less than 0.01 µM; for `O=C(NCc1cccs1)c1cc([N+](=O)[O-])ccc1NC1CCCC1` [2-(Cyclopentylamino)-5-nitro-N-(2-thienylmethyl)benzamide]: less than 0.01 µM. For `O=C(NCCCc1ccccc1)c1cc([N+](=O)[O-])ccc1NC1CCCC1` [2-(Cyclopentylamino)-5-nitro-N-(3-phenylpropyl)benzamide], the IC50 was less than 0.01 µM. On the same count and under the same terms, the same measure for `O=C(NCc1ccc(C(F)(F)F)cc1)c1cc([N+](=O)[O-])ccc1NC1CCCC1` [2-(Cyclopentylamino)-5-nitro-N-[4-(trifluoromethyl)benzyl]benzamide]: less than 0.01 µM; for `O=C(NCCc1ccccc1)c1cc([N+](=O)[O-])ccc1NC1CCCC1` [2-(Cyclopentylamino)-5-nitro-N-phenethylbenzamide]: less than 0.01 µM; for `O=C(NCc1ccc(Cl)cc1Cl)c1cc([N+](=O)[O-])ccc1NC1CCCC1` [2-(Cyclopentylamino)-N-(2,4-dichlorobenzyl)-5-nitrobenzamide]: less than 0.01 µM. As to `O=C(NCc1ccc(Cl)c(Cl)c1)c1cc([N+](=O)[O-])ccc1NC1CCCC1` [2-(Cyclopentylamino)-N-(3,4-dichlorobenzyl)-5-nitrobenzamide], the IC50 is less than 0.01 µM. The same measure, in the same setting: as for `O=C(NCc1ccc(F)c(F)c1)c1cc([N+](=O)[O-])ccc1NC1CCCC1` [2-(Cyclopentylamino)-N-(3,4-difluorobenzyl)-5-nitrobenzamide], the figure is less than 0.01 µM; as for `O=C(NCc1ccc(F)cc1)c1cc([N+](=O)[O-])ccc1NC1CCCC1` [2-(Cyclopentylamino)-N-(4-fluorobenzyl)-5-nitrobenzamide], less than 0.01 µM; as for `COc1cc(CNC(=O)c2cc([N+](=O)[O-])ccc2NC2CCCC2)ccc1O` [2-(Cyclopentylamino)-N-(4-hydroxy-3-methoxybenzyl)-5-nitrobenzamide], less than 0.01 µM.

As to `COc1ccc(CNC(=O)c2cc([N+](=O)[O-])ccc2NC2CCCC2)cc1` [2-(Cyclopentylamino)-N-(4-methoxybenzyl)-5-nitrobenzamide], the IC50 was less than 0.01 µM.

For the molecule `Cc1ccc(CNC(=O)c2cc([N+](=O)[O-])ccc2NC2CCCC2)cc1` [2-(Cyclopentylamino)-N-(4-methylbenzyl)-5-nitrobenzamide], the IC50 was less than 0.01 µM. The same measure, in the same setting: the same measure for `O=C(NCc1ccco1)c1cc([N+](=O)[O-])ccc1NC1CCCC1` [2-(Cyclopentylamino)-N-furfuryl-5-nitrobenzamide]: less than 0.01 µM. Still for that read-out and setting: as for `CCCCCCNC(=O)c1cc([N+](=O)[O-])ccc1NC1CCCC1` [2-(Cyclopentylamino)-N-hexyl-5-nitrobenzamide], the figure is less than 0.01 µM; as for `COc1ccc(CNC(=O)c2cc([N+](=O)[O-])ccc2N[C@H]2CC[C@@H](NC=O)CC2)cc1OC` [2-(cis-4-Formamidocyclohexylamino)-N-(3,4-dimethoxybenzyl)-5-nitrobenzamide], less than 0.01 µM. Take `COCCOc1ccc(CNC(=O)c2cc([N+](=O)[O-])ccc2N[C@H]2CC[C@@H](O)CC2)cc1OC` [2-(cis-4-Hydroxycyclohexylamino)-N-[3-methoxy-4-(2-methoxyethoxy)benzyl]-5-nitrobenzamide]: the IC50 was less than 0.01 µM. Same read-out and setting: as for `O=C(NCc1ccc2c(c1)OCO2)c1cc([N+](=O)[O-])ccc1N[C@H]1CC[C@@H](Cl)CC1` [2-(cis-4-chlorocyclohexylamino)-5-nitro-N-(1,3-benzodioxol-5-ylmethyl)benzamide], the figure is less than 0.01 µM; as for `CC(C)(C)Nc1ccc([N+](=O)[O-])cc1C(=O)NCc1ccc2c(c1)OCO2` [2-(tert-Butylamino)-5-nitro-N-(1,3-benzodioxol-5-ylmethyl)benzamide], less than 0.01 µM.

Turning to `CSc1ccc(CNC(=O)c2cc([N+](=O)[O-])ccc2N[C@H]2CC[C@H](O)CC2)cc1` [2-(trans-4-Hydroxycyclohexyl)amino-N-[4-(methylthio)benzy]-5-nitrobenzamide], the IC50 was less than 0.01 µM.

For the molecule `CCOC(=O)N1CCC(Nc2ccc([N+](=O)[O-])cc2C(=O)NCc2ccc3c(c2)OCO3)CC1` [2-[1-(Ethoxycarbonyl)piperidin-4-ylamino]-5-nitro-N-(1,3-benzodioxol-5-ylmethyl)benzamide], the IC50 is less than 0.01 µM. Still for that read-out and setting: the same measure for `O=C(NCc1ccc2c(c1)OCO2)c1cc([N+](=O)[O-])ccc1NC1(CO)CCCC1` [2-[1-(Hydroxymethyl)cyclopentylamino]-5-nitro-N-(1,3-benzodioxol-5-ylmethyl)benzamide]: less than 0.01 µM. Same read-out and setting: as for `CC(C)(C)OC(=O)N1CCC(Nc2ccc([N+](=O)[O-])cc2C(=O)NCc2ccc3c(c2)OCO3)CC1` [2-[1-(tert-Butoxycarbonyl)-4-piperidinylamino]-5-nitro-N-(1,3-benzodioxol-5-ylmethyl)benzamide], the figure is less than 0.01 µM; as for `COc1ccc(CNC(=O)c2cc([N+](=O)[O-])ccc2NC2CCN(C(=O)OC(C)(C)C)CC2)cc1OC` [2-[1-(tert-Butoxycarbonyl)piperidin-4-ylamino]-N-(3,4-dimethoxybenzyl)-5-nitrobenzamide], less than 0.01 µM.

`COc1ccc(CNC(=O)c2cc([N+](=O)[O-])ccc2NC2CCN(C(=NC(=O)OC(C)(C)C)NC(=O)OC(C)(C)C)CC2)cc1OC` [2-[1-[1,3-Bis(tert-butoxycarbonyl)amidino]piperidin-4-ylamino]-N-(3,4-dimethoxybenzyl)-5-nitrobenzamide]: the IC50 was less than 0.01 µM.

Consider `COc1cc(CNC(=O)c2cc([N+](=O)[O-])ccc2NC(CO)CO)ccc1C` [2-[2-Hydroxy-1-hydroxymethyl)ethylamino]-N-(3-methoxy-4-methylbenzyl)-5-nitrobenzamide], for which the half-maximal inhibitory concentration (IC50) was less than 0.01 µM. For `O=C(OC1CCC(Nc2ccc([N+](=O)[O-])cc2C(=O)NCc2ccccc2)C1)c1ccccc1` (stereo not drawn) [2-[3-(Benzoyloxy)cyclopentylamino]-N-benzyl-5-nitrobenzamide], the IC50 was less than 0.01 µM. As to `COC(=O)C1CCC(Nc2ccc([N+](=O)[O-])cc2C(=O)NCc2ccc3c(c2)OCO3)CC1` (stereo not drawn) [2-[4-(Methoxycarbonyl)cyclohexylamino]-5-nitro-N-(1,3-benzodioxol-5-ylmethyl)benzamide], the IC50 is less than 0.01 µM. With `C[C@@H](O)[C@@H](CO)Nc1ccc([N+](=O)[O-])cc1C(=O)NCc1ccc2c(c1)OCO2` [2-[(1R, 2R)-2-Hydroxy-1-(hydroxymethyl)propylamino]-5-nitro-N-(1,3-benzodioxol-5-ylmethyl)benzamide], the IC50 is less than 0.01 µM. Turning to `COc1ccc(CNC(=O)c2cc([N+](=O)[O-])ccc2N[C@H](C(N)=O)[C@@H](C)O)cc1OC` [2-[(1S, 2R)-1-(Carbamoyl)-2-hydroxypropylamino]-N-(3,4-dimethoxybenzyl)-5-nitrobenzamide], the IC50 is less than 0.01 µM.
